Bridge positions count the residues as written; N and C are the ends. Peptide text beside a SMILES is read from it.
Experiments:
P-Smad2/3 = P-Smad2/3 content in lung tissue, BLM mouse fibrosis model; assay type: in vivo; settings: single intratracheal dose 3 mg/kg on Day 7, lung 24 h later, BLM model group = 100.00
Procedure, shortened: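 Male C57/6J mice (6–8 weeks, 18–20 g, n=8/group) received intratracheal bleomycin 0.7 USP/kg on Day 1, then a single intratracheal 3 mg/kg peptide dose or saline on Day 7. Values are expressed as the treated/model content ratio.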

[1] = tested on: rat fibrotic disease model (bleomycin); experiment: Hydroxyproline (HYP) content / collagen deposition in lung, bleomycin rat fibrosis model; assay type: in vivo; settings: 2 mg/kg intratracheal twice weekly x4 from Day 1, Day 15, model group = 100.00
Method: This Example was to evaluate the inhibitory effect of polypeptides on collagen deposition at the pathological sites of pulmonary fibrosis. 6- to 8-week-old male SD rats weighing 200 to 220 g were used as subjects for the study. The experimental animals were randomized into groups, 8 animals in each group. On the day of modeling (Day 1), a single dose of 1.8 USP/kg of bleomycin solution was administered via the tracheal route to the model group and each peptide-treated group to induce the model. Starting on Day 1, each peptide-treated group received intratracheal administration of the peptide at a dosage of 2 mg/kg, with a dosing frequency of twice a week, for a total of four administrations. The model group received an equal volume of solvent (saline) as a control, with the volume being 100 μL. The procedure followed that described in Example 4. Day 15 was set as the experimental endpoint for assessing the degree of fibrosis in the model.
On Day 15, the animals were dissected to collect lung tissues. After grinding the rat lung tissues in liquid nitrogen, total hydroxyproline (HYP) was extracted from the tissues using acid hydrolysis, and the HYP content was determined by chloramine T oxidation colorimetry. 1 mL of 6N HCl was added per 100 mg of tissue and thoroughly mixed, followed by hydrolysis at 121° C. for 6 hours. The hydrolysate was centrifuged, and the resulting supernatant was used for HYP content determination. To a 96-well plate, the hydrolysate supernatant, or a gradient of HYP standard solutions (Sigma, Catalog No. V900395-25G) at different concentrations, was added in 10 μL per well, and dried in an oven at 65° C. 100 μL per well of 1.4% chloramine T oxidizing solution (Sigma, Catalog No. 23270-50G) was added, and incubated at room temperature for 15 minutes. 100 μL per well of Ehrlich's color development solution (Solarbio, Catalog No. G1290) was added and incubated at 65° C. for 30 minutes. The absorbance of each sample well was measured at 560 nm (OD560) using a multifunctional microplate reader (TECAN, model Infinite 200 Pro). The total HYP content in the lung tissue from each experimental group was calculated to determine the reduction percentage of HYP content in the peptide-treated group relative to the model group, and the inhibitory effect of the peptide molecule on collagen deposition at the fibrotic site was assessed.

[2] = tested on: TSP-1-dependent TGF-β activation; experiment: TSP-1-dependent TGF-β activation in PMA-differentiated THP-1 cells with 293-TGFβ Res reporter cells; assay type: cell-based; settings: 100 μM polypeptide, 24 h; ratio to negative control group (1.00)
Method: In this Example, the inhibitory effects of the polypeptides on TSP-1-dependent TGF-β activation were detected using a model based on a high TSP-1 expressing cell. In the assay, THP-1 cells (American Typical Culture Collection, ATCC, TIB-20) were induced by phorbol ester (Phorbol 12-myristate 13-acetate, PMA) (Sigma, Catalog No. P1585) and differentiated into macrophage-like cells with distinct macrophage expression profiles.
The experiment was performed as follows: THP-1 cells were inoculated in a 96-well plate, and treated with 300 nM PMA for differentiation and adherence to form macrophage-like cells. 100 μM polypeptide was added (For the negative control group, an equal volume of PBS (the solvent for the polypeptide) was added, while the positive control group received an equal concentration of the polypeptide shown in SEQ ID NO: 50.) The cells were treated for 24 hours, and then a 293 reporter cell strain, 293-TGFβ Res cell strain (novoprotein, Catalog No. XCC03-1), was added for detecting TGF-β activity, and co-cultivated for 24 hours. Bio-Lite Luciferase Assay lysate comprising fluorescent substrate (Vazyme, Catalog No. DD1201-01) was added, and the fluorescent intensity was detected using a multifunctional microplate reader (TECAN, model Infinite 200 Pro). The inhibitory effect of the polypeptide on TGF-β activation was assessed by calculating the ratio of the fluorescence signal from the polypeptide-treated groups to that of the negative control group.

[3] = tested on: human hepatic stellate cells (LX-2); experiment: ECM-related gene expression (RT-qPCR) in TGF-β1-stimulated LX-2 cells, liver fibrosis cell model; assay type: cell-based; settings: 20 ng/mL TGF-β1 24 h, then 100 μM polypeptide 48 h; for COL I gene expression Mean: blank control 1.00, model group 6.62; for FN gene expression Mean: blank control 1.00, model group 11.38
Description: This Example was to evaluate the inhibitory effect of polypeptides on the expression of extracellular matrix (ECM)-related genes in a cellular model of liver fibrosis. The experiment utilized human hepatic stellate cells (LX-2), which are the primary source of myofibroblasts in the liver. Upon activation, hepatic stellate cells transform into myofibroblasts, which secrete ECM in live and play a direct role in the development of hepatic fibrosis. Transient stimulation of LX-2 cells with TGF-β1 can initiate a positive feedback regulation of TSP-1-TGF-β1 activation, which continuously enhances myofibroblast characteristics, including ECM production.
This experiment was performed as follows. LX-2 cells (Procell, CL-0560) were stimulated by 20 ng/mL TGF-β1 (Genscript, Catalog No.Z03411) for 24 h, then added 100 μM polypeptide and cultured for 48 h. An equal volume of solvent was added to the model group, and LX-2 cells without any treatment were used as a blank control. After that, LX-2 cells were collected and total RNA was extracted for RT-qPCR to detect the expression of ECM-related genes, EDA-Fibronectin (fibronectin, FN) and Collagen I (COL1). The polypeptides were able to reduce the expressions of FN and COL1 genes in LX-2 and inhibit ECM production.

Compound	P-Smad2/3 content in lung tissue, ratio to model group, Mean(%) (P-Smad2/3; 3 mg/kg)	HYP content in lung tissue relative to model group, Mean (%) [1]	Mean (relative fluorescence intensity) [2]	P-Smad2/3 content in lung tissue, ratio to model group, Mean(%) (P-Smad2/3)	COL I gene expression Mean [3]	FN gene expression Mean [3]
C[C@@H]1NC(=O)[C@H](CC(=O)O)NC(=O)[C@H](CCC(N)=O)NC(=O)[C@H]([C@@H](C)O)NC(=O)[C@H](CC(N)=O)NC(=O)[C@H](CC(=O)O)NC(=O)[C@H](CCC(=O)O)NC1=O [SEQ ID NO: 40, cyclo[Thr-Gln-Asp-Ala-Glu-Asp-Asn]] (cyclo(AEDNTQD))	83.20%	72.93%	0.77	–	–	–
CC(=O)N[C@H](C(=O)N[C@H]1CSSC[C@@H](C(=O)O)NC(=O)[C@H](CC(N)=O)NC(=O)[C@H](CC(=O)O)NC(=O)[C@H](CCC(=O)O)NC(=O)[C@H](C)NC(=O)[C@H](CC(=O)O)NC1=O)[C@@H](C)O [SEQ ID NO: 43, Ac-Thr-cyclo[Cys-Asp-Ala-Glu-Asp-Asn-Cys]] (Ac-TCDAEDNC-OH; disulfide 2-8)	–	72.91%	0.65	49.30%	4.63	5.80
CC(=O)N[C@H](C(=O)N[C@H]1CSSC[C@@H](C(N)=O)NC(=O)[C@H](CC(N)=O)NC(=O)[C@H](CC(=O)O)NC(=O)[C@H](CCC(=O)O)NC(=O)[C@H](C)NC(=O)[C@H](CC(=O)O)NC1=O)[C@@H](C)O [SEQ ID NO: 44, Ac-Thr-cyclo[Cys-Asp-Ala-Glu-Asp-Asn-Cys]-NH2] (Ac-TCDAEDNC-NH2; disulfide 2-8)	–	65.55%	0.43	79.93%	–	–
C[C@@H]1NC(=O)[C@H]([C@@H](C)O)NC(=O)[C@H](CC(N)=O)NC(=O)[C@H](CC(=O)O)NC(=O)[C@H](CCC(=O)O)NC(=O)[C@@H]2CCCN2C(=O)[C@H](CC(=O)O)NC(=O)[C@H](CCC(N)=O)NC(=O)[C@H]([C@@H](C)O)NC(=O)[C@H](CO)NC1=O [SEQ ID NO: 46, cyclo[Thr-Gln-Asp-Pro-Glu-Asp-Asn-Thr-Ala-Ser]] (cyclo(ASTQDPEDNT))	–	66.46%	0.69	74.60%	–	–
Ac-TQDAEDN-NH2 [SEQ ID NO: 06, Ac-Thr-Gln-Asp-Ala-Glu-Asp-Asn-NH2]	–	80.30%	0.65	54.89%	4.57	5.72
Ac-TQDAEDNTASH-NH2 [SEQ ID NO: 33, Ac-Thr-Gln-Asp-Ala-Glu-Asp-Asn-Thr-Ala-Ser-His-NH2]	–	80.28%	0.67	71.09%	4.49	6.80
Ac-TQDAEDPTA-NH2 [SEQ ID NO: 22, Ac-Thr-Gln-Asp-Ala-Glu-Asp-Pro-Thr-Ala-NH2]	–	68.30%	0.74	55.32%	4.63	6.62
Ac-TQDAEDPTAS-NH2 [SEQ ID NO: 25, Ac-Thr-Gln-Asp-Ala-Glu-Asp-Pro-Thr-Ala-Ser-NH2]	–	81.45%	0.73	65.07%	4.00	6.47
Ac-TQDPEDNTAS-NH2 [SEQ ID NO: 26, Ac-Thr-Gln-Asp-Pro-Glu-Asp-Asn-Thr-Ala-Ser-NH2]	–	78.75%	0.68	76.78%	4.30	5.79

— patent US20250388623A1, “PEPTIDE INHIBITOR AND USE THEREOF” (CHENGDU BRILLIANT INSPIRATION BIOTHERAPEUTICS CO., LTD, priority 2022, published 2025)
